# Data reported in patent publication US12344603B2 (Genentech, Inc., priority 2020, dated 2025).
# pIC50: −log10 of the molar value.
# Biological target: IRE1α (Homo sapiens (Human), UniProt O75460, D688N)
# Assay: IRE1α TR-FRET competition binding assay (IRE1α HTRF)
# Details: TR-FRET competition binding to kinase domain of IRE1α
# Method in brief: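 Kinase domain (0.25 nM) pre-bound to 2 nM Eu anti-His antibody for 1 h at 4° C in HEPES pH 7.5/MgCl2/Brij 35/DTT/gamma globulin buffer, then mixed with compounds and 2 nM Alexa 647 ATP-competitive probe. 1 h at room temperature; probe displacement read as TR-FRET (Ex 347 nm, Em 665/615 nm).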
# Chain of IRE1α (O75460 547-977 D688N): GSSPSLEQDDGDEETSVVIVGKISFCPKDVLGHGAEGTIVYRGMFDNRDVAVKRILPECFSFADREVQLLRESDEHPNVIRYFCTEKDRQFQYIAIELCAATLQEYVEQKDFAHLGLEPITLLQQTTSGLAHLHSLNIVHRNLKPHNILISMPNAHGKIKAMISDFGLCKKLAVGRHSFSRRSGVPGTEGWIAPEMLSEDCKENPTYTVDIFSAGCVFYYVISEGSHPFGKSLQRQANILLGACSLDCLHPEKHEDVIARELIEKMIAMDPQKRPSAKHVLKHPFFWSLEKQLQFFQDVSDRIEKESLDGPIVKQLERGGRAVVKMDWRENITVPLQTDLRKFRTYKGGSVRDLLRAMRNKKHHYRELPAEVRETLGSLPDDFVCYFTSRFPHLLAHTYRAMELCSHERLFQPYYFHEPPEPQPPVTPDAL
row,pIC50,SMILES
1,9.52,"CC(C)n1c(=O)c(-c2ccc(NS(=O)(=O)CC3CC34CC4)c(F)c2)nc2cnc(N[C@H]3CC[C@H](N(C)C)CC3)nc21 (some centres unmarked) [Example 256, N-[4-[2-[[4-(Dimethylamino)cyclohexyl]amino]-8-isopropyl-7-oxo-pteridin-6-yl]-2-fluoro-phenyl]-1-spiro[2.2]pentan-2-yl-methanesulfonamide]"
2,9.70,"CC(C)n1c(=O)c(-c2ccc(NS(=O)(=O)CC3C(F)(F)C34CCC4)c(F)c2)nc2cnc(N[C@H]3CC[C@H](N(C)C)CC3)nc21 (some centres unmarked) [Example 257, 1-(2,2-Difluorospiro[2.3]hexan-1-yl)-N-[4-[2-[[4-(dimethylamino)cyclohexyl]amino]-8-isopropyl-7-oxo-pteridin-6-yl]-2-fluoro-phenyl]methanesulfonamide]"
3,9.70,"CC(C)n1c(=O)c(-c2ccc(NS(=O)(=O)CCC3CC3(F)F)c(F)c2)nc2cnc(N[C@H]3CC[C@H](N(C)C)CC3)nc21 (some centres unmarked) [Example 259, 2-(2,2-Difluorocyclopropyl)-N-[4-[2-[[4-(dimethylamino)cyclohexyl]amino]-8-isopropyl-7-oxo-pteridin-6-yl]-2-fluoro-phenyl]ethanesulfonamide]"
4,9.70,"CC(C)n1c(=O)c(-c2ccc(NS(=O)(=O)CC3(C(F)(F)F)CCC3)c(F)c2)nc2cnc(N[C@H]3CC[C@H](N(C)C)CC3)nc21 [Example 261, N-[4-[2-[[4-(Dimethylamino)cyclohexyl]amino]-8-isopropyl-7-oxo-pteridin-6-yl]-2-fluoro-phenyl]-1-[1-(trifluoromethyl)cyclobutyl]methanesulfonamide]"
5,9.52,"CC(C)n1c(=O)c(-c2ccc(NS(=O)(=O)CC3CC4(C3)CC4(F)F)c(F)c2)nc2cnc(N[C@H]3CC[C@H](N(C)C)CC3)nc21 (some centres unmarked) [Example 262, 1-(2,2-Difluorospiro[2.3]hexan-5-yl)-N-[4-[2-[[4-(dimethylamino)cyclohexyl]amino]-8-isopropyl-7-oxo-pteridin-6-yl]-2-fluoro-phenyl]methanesulfonamide]"
6,9.70,"CC(C)n1c(=O)c(-c2ccc(NS(=O)(=O)CC3CC4C(C3)C4(F)F)c(F)c2)nc2cnc(N[C@H]3CC[C@H](N(C)C)CC3)nc21 (some centres unmarked) [Example 265, 1-(6,6-Difluoro-3-bicyclo[3.1.0]hexanyl)-N-[4-[2-[[4-(dimethylamino)cyclohexyl]amino]-8-isopropyl-7-oxo-pteridin-6-yl]-2-fluorophenyl]methanesulfonamide]"
7,9.70,"CC(C)n1c(=O)c(-c2ccc(NS(=O)(=O)CC3(C(F)F)CCCC3)c(F)c2)nc2cnc(N[C@H]3CC[C@H](N(C)C)CC3)nc21 [Example 266, 1-[1-(Difluoromethyl)cyclopentyl]-N-[4-[2-[[4-(dimethylamino)cyclohexyl]amino]-8-isopropyl-7-oxo-pteridin-6-yl]-2-fluoro-phenyl]methanesulfonamide]"
8,9.40,"CC(C)n1c(=O)c(-c2ccc(NS(=O)(=O)C3C4CCCCC43)c(F)c2)nc2cnc(N[C@H]3CC[C@H](N(C)C)CC3)nc21 (some centres unmarked) [Example 275, N-[4-[2-[[4-(Dimethylamino)cyclohexyl]amino]-8-isopropyl-7-oxo-pteridin-6-yl]-2-fluoro-phenyl]norcarane-7-sulfonamide]"
9,9.70,"CC(C)n1c(=O)c(-c2ccc(NS(=O)(=O)CC3CCC3)c(F)c2)nc2cnc(N[C@H]3CC[C@H](N(C)C)CC3)nc21 [Example 278, 1-Cyclobutyl-N-[4-[2-[[4-(dimethylamino)cyclohexyl]amino]-8-isopropyl-7-oxo-pteridin-6-yl]-2-fluoro-phenyl]methanesulfonamide]"
10,9.70,"CC(C)n1c(=O)c(-c2ccc(NS(=O)(=O)C3CCC(F)(F)CC3)c(F)c2)nc2cnc(N[C@H]3CC[C@H](N(C)C)CC3)nc21 [Example 280, N-[4-[2-[[4-(Dimethylamino)cyclohexyl]amino]-8-isopropyl-7-oxo-pteridin-6-yl]-2-fluoro-phenyl]-4,4-difluoro-cyclohexanesulfonamide]"

# More lines, now with the values behind:
row,SMILES,pIC50
1,"Cc1nc(NS(=O)(=O)CCC(F)(F)F)ccc1-c1nc2cnc(N[C@H]3CC[C@H](N(C)C)CC3)nc2n(C(C)C)c1=O [Example 251, N-[5-[2-[[4-(Dimethylamino)cyclohexyl]amino]-8-isopropyl-7-oxo-pteridin-6-yl]-6-methyl-2-pyridyl]-3,3,3-trifluoro-propane-1-sulfonamide]",8.15
2,"Cc1nc(NS(=O)(=O)Cc2ccc(F)cc2)ccc1-c1nc2cnc(N[C@H]3CC[C@H](N(C)C)CC3)nc2n(C(C)C)c1=O [Example 252, N-[5-[2-[[4-(Dimethylamino)cyclohexyl]amino]-8-isopropyl-7-oxo-pteridin-6-yl]-6-methyl-2-pyridyl]-1-(4-fluorophenyl)methanesulfonamide]",9.00
3,"Cc1nc(NS(=O)(=O)c2ccccc2F)ccc1-c1nc2cnc(N[C@H]3CC[C@H](N(C)C)CC3)nc2n(C(C)C)c1=O [Example 253, N-[5-[2-[[4-(Dimethylamino)cyclohexyl]amino]-8-isopropyl-7-oxo-pteridin-6-yl]-6-methyl-2-pyridyl]-2-fluoro-benzenesulfonamide]",9.52
4,"Cc1nc(NS(=O)(=O)c2ccccc2Cl)ccc1-c1nc2cnc(N[C@H]3CC[C@H](N(C)C)CC3)nc2n(C(C)C)c1=O [Example 254, N-[5-[2-[[4-(Dimethylamino)cyclohexyl]amino]-8-isopropyl-7-oxo-pteridin-6-yl]-6-methyl-2-pyridyl]-2-chloro-benzenesulfonamide]",9.52
5,"Cc1nc(NS(=O)(=O)c2ccccc2C#N)ccc1-c1nc2cnc(N[C@H]3CC[C@H](N(C)C)CC3)nc2n(C(C)C)c1=O [Example 255, N-[5-[2-[[4-(Dimethylamino)cyclohexyl]amino]-8-isopropyl-7-oxo-pteridin-6-yl]-6-methyl-2-pyridyl]-2-cyano-benzenesulfonamide]",9.70
6,"CC(C)n1c(=O)c(-c2ccc(NS(=O)(=O)CC3(C(C)(F)F)CC3)c(F)c2)nc2cnc(N[C@H]3CC[C@H](N(C)C)CC3)nc21 [Example 258, 1-[1-(1,1-Difluoroethyl)cyclopropyl]-N-[4-[2-[[4-(dimethylamino)cyclohexyl]amino]-8-isopropyl-7-oxo-pteridin-6-yl]-2-fluoro-phenyl]methanesulfonamide]",9.70
7,"CC(C)n1c(=O)c(-c2ccc(NS(=O)(=O)CC3CC4(CCC4)C3)c(F)c2)nc2cnc(N[C@H]3CC[C@H](N(C)C)CC3)nc21 [Example 260, N-[4-[2-[[4-(Dimethylamino)cyclohexyl]amino]-8-isopropyl-7-oxo-pteridin-6-yl]-2-fluoro-phenyl]-1-spiro[3.3]heptan-2-yl-methanesulfonamide]",9.70
8,"CC(C)n1c(=O)c(-c2ccc(NS(=O)(=O)CC3CCCC3)c(F)c2)nc2cnc(N[C@H]3CC[C@H](N(C)C)CC3)nc21 [Example 267, 1-Cyclopentyl-N-[4-[2-[[4-(dimethylamino)cyclohexyl]amino]-8-isopropyl-7-oxo-pteridin-6-yl]-2-fluoro-phenyl]methanesulfonamide]",10.00
9,"CC(C)n1c(=O)c(-c2ccc(NS(=O)(=O)CC3Cc4ccccc4C3)c(F)c2)nc2cnc(N[C@H]3CC[C@H](N(C)C)CC3)nc21 [Example 268, N-[4-[2-[[4-(Dimethylamino)cyclohexyl]amino]-8-isopropyl-7-oxo-pteridin-6-yl]-2-fluoro-phenyl]-1-indan-2-yl-methanesulfonamide]",10.00
10,"CC(C)n1c(=O)c(-c2ccc(NS(=O)(=O)CC3CCCCC3)c(F)c2)nc2cnc(N[C@H]3CC[C@H](N(C)C)CC3)nc21 [Example 269, 1-Cyclohexyl-N-[4-[2-[[4-(dimethylamino)cyclohexyl]amino]-8-isopropyl-7-oxo-pteridin-6-yl]-2-fluoro-phenyl]methanesulfonamide]",9.70
11,"CC(C)n1c(=O)c(-c2ccc(NS(=O)(=O)CC34CCC(CC3)C4)c(F)c2)nc2cnc(N[C@H]3CC[C@H](N(C)C)CC3)nc21 [Example 270, N-[4-[2-[[4-(Dimethylamino)cyclohexyl]amino]-8-isopropyl-7-oxo-pteridin-6-yl]-2-fluoro-phenyl]-1-norbornan-1-yl-methanesulfonamide]",9.52
12,"CC(C)n1c(=O)c(-c2ccc(NS(=O)(=O)CC3CCC(F)(F)CC3)c(F)c2)nc2cnc(N[C@H]3CC[C@H](N(C)C)CC3)nc21 [Example 271, 1-(4,4-Difluorocyclohexyl)-N-[4-[2-[[4-(dimethylamino)cyclohexyl]amino]-8-isopropyl-7-oxo-pteridin-6-yl]-2-fluoro-phenyl]methanesulfonamide]",9.70
13,"CC(C)n1c(=O)c(-c2ccc(NS(=O)(=O)[C@@H]3C[C@H]3c3ccccc3)c(F)c2)nc2cnc(N[C@H]3CC[C@H](N(C)C)CC3)nc21 [Example 274, (1R,2S)—N-(4-(2-(((1r,4r)-4-(Dimethylamino)cyclohexyl)amino)-8-isopropyl-7-oxo-7,8-dihydropteridin-6-yl)-2-fluorophenyl)-2-phenylcyclopropane-1-sulfonamide]",9.70
14,"CC(C)n1c(=O)c(-c2ccc(NS(=O)(=O)C3CCC3)c(F)c2)nc2cnc(N[C@H]3CC[C@H](N(C)C)CC3)nc21 [Example 276, N-[4-[2-[[4-(Dimethylamino)cyclohexyl]amino]-8-isopropyl-7-oxo-pteridin-6-yl]-2-fluoro-phenyl]cyclobutanesulfonamide]",9.05
15,"CC(C)n1c(=O)c(-c2ccc(NS(=O)(=O)C3CC4(CCC4)C3)c(F)c2)nc2cnc(N[C@H]3CC[C@H](N(C)C)CC3)nc21 [Example 277, N-[4-[2-[[4-(Dimethylamino)cyclohexyl]amino]-8-isopropyl-7-oxo-pteridin-6-yl]-2-fluoro-phenyl]spiro[3.3]heptane-2-sulfonamide]",9.70
16,"CC(C)n1c(=O)c(-c2ccc(NS(=O)(=O)CC3CC(F)(F)C3)c(F)c2)nc2cnc(N[C@H]3CC[C@H](N(C)C)CC3)nc21 [Example 279, 1-(3,3-Difluorocyclobutyl)-N-[4-[2-[[4-(dimethylamino)cyclohexyl]amino]-8-isopropyl-7-oxo-pteridin-6-yl]-2-fluoro-phenyl]methanesulfonamide]",9.52
